The subject of this assay is reconstructed human epidermis. Description: incorporation of 14C-acetate into total lipids in reconstructed human epidermis (Skinethic). Type of assay: cell-based. To be noted: for percentage of stimulation (incorporation of 14C-acetate, total lipid synthesis): untreated cells = 100. The procedure:
Study of the effect of β-naphthoxyacetic acid on the synthesis of the total lipids of the skin.
The study is carried out by measuring the incorporation of acetate labelled with carbon-14 in models of reconstructed human epidermis sold by the company Skinethic, the total lipids composition of which is close to that of normal human epidermis.
The reconstructed human epidermis is cultured according to the supplier's recommendations.
β-Naphthoxyacetic acid, at concentrations of 10^−5, 10^−6, and 10^−7 M, is placed in contact for 72 hours with reconstructed human epidermides, after culturing the latter for 14 days under the conditions recommended by the supplier. The labelling with ^14C-acetate (sodium [2-^14C]-acetate sold by Amersham, 59 mci/mmol) is carried out 24 hours after placing the test product in contact with the culture, i.e. during the final 48 hours of culturing, at a rate of 0.5 μCi of ^14C-acetate per culture.
At the end of culturing, after washing the epidermides with phosphate buffer (PBS), the epidermides are dissociated and the cells are lysed with 0.5 M perchloric acid from ice. The lysates then undergo an extraction with a methanol/chloroform mixture (2:1), a centrifugation and a re-extraction of the pellets obtained, under the same conditions as above. The lipids are separated by addition of PBS and chloroform (Blight-Byer technique). The organic phase containing the lipids is taken and the radioactivity incorporated into this phase is determined by liquid scintillation. The organic phase is then dried under a flow of nitrogen. A thin layer chromatography on plates on plates (Merck K60) using, as eluent, a chloroform/methanol/water mixture (50:18:2.6) to separate the phospholipids, or a hexane/ether/acetic acid mixture (15:5.6:0.19) to separate the neutral lipids.
The plates are then autoradiographed for 24 hours and the chromatograms are analysed by densitometry using the One-D-Scan software from the company Scanalytics.
The results are evaluated relative to a control consisting of cells which have not been treated with β-naphthoxyacetic acid.
A positive control (10^−4 M trifluoperazine), which is known to stimulate lipid synthesis, and an negative control (10^−6 M retinoic acid) are introduced into the test by way of reference.

With `CN1CCN(CCCN2c3ccccc3Sc3ccc(C(F)(F)F)cc32)CC1` [Trifluoroperazine, trifluoperazine, reference compound], the “percentage of stimulation (incorporation of 14C-acetate, total lipid synthesis)” value (“percentage of stimulation” below) (10^−4 M, positive control) is recorded as 122%.

With `CC1=C(/C=C/C(C)=C/C=C/C(C)=C/C(=O)O)C(C)(C)CCC1` [Retinoic acid, retinoic acid, reference compound], where the note is “10^−6 M, 72 hours contact”, the “percentage of stimulation” value was 82%.

Consider `O=C(O)COc1ccc2ccccc2c1` [β-Naphthoxyacetic acid], for which the “percentage of stimulation” value by setting is: (10^−5 M, 72 hours contact) 110%; (10^−6 M, 72 hours contact) 113%; (10^−7 M, 72 hours contact) 116%. Further, the “effect on incorporation of acetate / lipid synthesis (in words)” value (10^−5 to 10^−7 M, reconstructed human epidermis) is listed as “significantly stimulates the incorporation of acetate”.

Values taken from patent publication US6521239B1, “Cosmetic composition containing at least one auxin and its use” (Societe L'Oreal S.A., priority 1997, dated 2003).
